{
  "source": "patent US20110275675A1",
  "about": "“Antimicrobial Dental Materials” (IVOCLAR VIVADENT AG, priority 2010, published 2011)",
  "key": {"[1]": {"assay": "Influence on radical polymerization: chemical hardening of Systemp.link", "assay_type": "physicochemical", "conditions": "3.0 wt.-%", "method": "3.0 wt.-% triclosan or 3.0 wt.-% of the antimicrobial active ingredient of formula (Ia) was incorporated into the base paste of the commercially available composite-based temporary fixing cement Systemp.link (Ivoclar Vivadent AG), which hardens radically. The processing time (PT), setting time (ST) and Shore D hardness in the case of chemical hardening were then determined."}, "[2]": {"assay": "Hardening on exposure to dental polymerization light", "assay_type": "physicochemical", "conditions": "20 s exposure to light (Bluephase); 0.2 or 0.5 wt.-% Ia in Fermit", "method": "(§1) 0.2 wt.-% or 0.5 wt.-% of the antimicrobial active ingredient of formula (Ia) was incorporated into the commercially available composite-based temporary filling material Fermit (Ivoclar Vivadent AG). […] The Shore D hardness was then determined (see Table 4 for results)."}, "[3]": {"assay": "Through-curing depth of light-curing composite filling material", "assay_type": "physicochemical", "conditions": "3.0 or 5.0 wt.-%", "method": "A composite filling material with the following composition was prepared:\n3.0 wt.-% or 5.0 wt.-% of the antimicrobial active ingredient of formula (Ia) was incorporated into the composite filling material. After 20 s exposure to light with a dental polymerization light (Bluephase®, Ivoclar Vivadent AG), the through-curing depth was determined. For comparison, the antimicrobial active ingredients triclosan and chlorhexidine diacetate were also incorporated into the composite material in a quantity of 3.0 wt.-% or 5.0 wt.-% and the through-curing depth determined (see Table 5 for results)."}, "[4]": {"assay": "Shore D hardness of temporary filling material (Fermit)", "assay_type": "physicochemical", "conditions": "0.2 or 0.5 wt.-%", "method": "as §1"}, "[5]": {"assay": "Hardening properties of temporary cement based on polycarboxylate/zinc oxide (Systemp.cem)", "assay_type": "physicochemical", "conditions": "0.3 or 3.0 wt.-%", "method": "(§2) 0.3 wt.-% or 3.0 wt.-% of the antimicrobial active ingredient of formula (Ia) was incorporated into the initiator paste of the commercially available temporary fixing cement based on polycarboxylate/zinc oxide Systemp.cem (Ivoclar Vivadent AG). The processing time (PT), setting time (ST) and Shore D hardness were then determined."}, "Streptococcus mutans": {"system": "Streptococcus mutans", "assay": "Agar plate zone of inhibition test", "assay_type": "cell-based, S. mutans DSM20723", "conditions": "24 h at 37° C./5% CO2", "excerpt": "To determine the antimicrobial action of a temporary dental cement with the active ingredient of formula (Ia), 3.0 wt.-% of the active ingredient of formula (Ia) was incorporated into the commercially available cement Systemp.link (Ivoclar Vivadent AG). Round testpieces with a diameter of 10 mm and a thickness of 2 mm were then shaped into small plates with the corresponding material and then cured. Testpieces made of Systemp.link without active ingredient and also with 1.0 and 3.0 wt.-% triclosan served as reference. After this, the antimicrobial action on the bacterial strain Streptococcus mutans was studied. The agar plate zone of inhibition test was used for this.\nBacterial strain: S. mutans DSM20723 Cultivation medium: BHI broth\n100 μl undiluted S. mutans culture solution was plated out onto agar plates. The testpieces were then placed on the agar plates. After 24 h storage at 37° C./5% CO2, the plates were assessed."}, "[6]": {"assay": "Hardening properties of composite-based temporary cement (Systemp.link)", "assay_type": "physicochemical", "conditions": "0.3 or 3.0 wt.-%", "method": "as §2, with “base” for “initiator”, “available composite-based” for “available”, “Systemp.link” for “based on polycarboxylate/zinc oxide Systemp.cem”"}, "[7]": {"conditions": "3.0 wt.-% active ingredient in cured Systemp.link small plates"}},
  "note": "“Also recorded” adds a separate entry of the source.",
  "data": [
    {"smiles": "CCCCCCCCNc1cc[n+](CCCCCCCCCC[n+]2ccc(NCCCCCCCC)cc2)cc1", "note": "[Ia]", "values": [
      {"measurement": "Influence on the chemical hardening of Systemp.link", "setting": "[1]", "value": "does not have a significant negative influence"},
      {"measurement": "Hardening after exposure to light", "setting": "[2]", "value": "hardened completely"},
      {"measurement": "Influence on the through-curing depth of the composite material", "setting": "[3]", "value": "does not have a significant negative influence"},
      {"measurement": "Influence on the hardening of Fermit", "setting": "[4]", "value": "does not have a significant negative influence"},
      {"measurement": "Influence on the hardening of Systemp.cem", "setting": "[5]", "value": "does not have a significant negative influence"},
      {"measurement": "Formation of zones of inhibition", "setting": "Streptococcus mutans; [7]", "value": "clear zones of inhibition"},
      {"measurement": "Influence on the hardening of Systemp.link", "setting": "[6]", "value": "does not have a significant negative influence"}
    ]},
    {"smiles": "CC(=O)O.CC(=O)O.NC(=N\\CCCCCC/N=C(N)/N=C(\\N)Nc1ccc(Cl)cc1)/N=C(\\N)Nc1ccc(Cl)cc1", "note": "[chlorhexidine diacetate]", "values": [
      {"measurement": "Influence on the through-curing depth of the composite material", "setting": "[3]", "value": "dramatically reduced"}
    ]},
    {"smiles": "Oc1cc(Cl)ccc1Oc1ccc(Cl)cc1Cl", "note": "[triclosan, 2,4,4′-trichloro-2′-hydroxydiphenylether]", "values": [
      {"measurement": "Influence on the chemical hardening of Systemp.link", "setting": "[1]", "value": "completely inhibited"},
      {"measurement": "Influence on the through-curing depth of the composite material", "setting": "[3]", "value": "dramatically reduced"},
      {"measurement": "Formation of zones of inhibition", "setting": "Streptococcus mutans; 1.0 wt.-% active ingredient in cured Systemp.link small plates", "value": "does not bring about a formation of zones of inhibition; also recorded: zones of inhibition do not form"},
      {"measurement": "Formation of zones of inhibition", "setting": "Streptococcus mutans; [7]", "value": "does not bring about a formation of zones of inhibition; also recorded: zones of inhibition do not form"}
    ]}
  ]
}
